Experimental findings from US9932341B2, “Use of pyrazolopyrimidine derivatives for the treatment of PI3K-delta related disorders” (Incyte Corporation, priority 2013, dated 2018) are described below.

This test addresses PI3Kδ (p110δ/p85α) (Homo sapiens (Human), UniProt O00329). The experiment in a line: PI3Kδ Scintillation Proximity Assay (Example A3). The test is classed as biochemical. To be noted: 20 μM ATP, 20 μM PIP2, 4 nM PI3Kδ, read-out: PI3Kδ SPA IC50. The protocol: [γ-^33P]ATP (10 mCi/mL) was purchased from PerkinElmer (Waltham, Mass.). […] PI3Kδ (p110δ/p85α) was purchased from Millipore (Bedford, Mass.). ATP, MgCl2, DTT, EDTA, MOPS and CHAPS were purchased from Sigma-Aldrich (St. Louis, Mo.). Wheat Germ Agglutinin (WGA) YSi SPA Scintillation Beads was purchased from GE healthcare life sciences (Piscataway, N.J.).
The kinase reaction was conducted in polystyrene 384-well matrix white plate from Thermo Fisher Scientific in a final volume of 25 μL. Inhibitors were first diluted serially in DMSO and added to the plate wells before the addition of other reaction components. The final concentration of DMSO in the assay was 0.5%. The PI3K assays were carried out at room temperature in 20 mM MOPS, pH 6.7, 10 mM MgCl2, 5 mM DTT and CHAPS 0.03%. Reactions were initiated by the addition of ATP, the final reaction mixture consisted of 20 μM PIP2, 20 μM ATP, 0.2 μCi [γ-^33P] ATP, 4 nM PI3Kδ. […] 25 mM EDTA, 400 μM ATP. The final concentration of SPA beads was 1.0 mg/mL. After the plate sealing, plates were shaken overnight at room temperature and centrifuged at 1800 rpm for 10 minutes, the radioactivity of the product was determined by scintillation counting on Topcount (PerkinElmer). IC50 determination was performed by fitting the curve of percent control activity versus the log of the inhibitor concentration using the GraphPad Prism 3.0 software.
On the technique in general: SPA uses beads or plates that emit light when radiolabelled molecules are held near them.

Bounds are passed on as bounds.

Sequence of PI3Kδ (p110δ/p85α) (O00329 whole entry): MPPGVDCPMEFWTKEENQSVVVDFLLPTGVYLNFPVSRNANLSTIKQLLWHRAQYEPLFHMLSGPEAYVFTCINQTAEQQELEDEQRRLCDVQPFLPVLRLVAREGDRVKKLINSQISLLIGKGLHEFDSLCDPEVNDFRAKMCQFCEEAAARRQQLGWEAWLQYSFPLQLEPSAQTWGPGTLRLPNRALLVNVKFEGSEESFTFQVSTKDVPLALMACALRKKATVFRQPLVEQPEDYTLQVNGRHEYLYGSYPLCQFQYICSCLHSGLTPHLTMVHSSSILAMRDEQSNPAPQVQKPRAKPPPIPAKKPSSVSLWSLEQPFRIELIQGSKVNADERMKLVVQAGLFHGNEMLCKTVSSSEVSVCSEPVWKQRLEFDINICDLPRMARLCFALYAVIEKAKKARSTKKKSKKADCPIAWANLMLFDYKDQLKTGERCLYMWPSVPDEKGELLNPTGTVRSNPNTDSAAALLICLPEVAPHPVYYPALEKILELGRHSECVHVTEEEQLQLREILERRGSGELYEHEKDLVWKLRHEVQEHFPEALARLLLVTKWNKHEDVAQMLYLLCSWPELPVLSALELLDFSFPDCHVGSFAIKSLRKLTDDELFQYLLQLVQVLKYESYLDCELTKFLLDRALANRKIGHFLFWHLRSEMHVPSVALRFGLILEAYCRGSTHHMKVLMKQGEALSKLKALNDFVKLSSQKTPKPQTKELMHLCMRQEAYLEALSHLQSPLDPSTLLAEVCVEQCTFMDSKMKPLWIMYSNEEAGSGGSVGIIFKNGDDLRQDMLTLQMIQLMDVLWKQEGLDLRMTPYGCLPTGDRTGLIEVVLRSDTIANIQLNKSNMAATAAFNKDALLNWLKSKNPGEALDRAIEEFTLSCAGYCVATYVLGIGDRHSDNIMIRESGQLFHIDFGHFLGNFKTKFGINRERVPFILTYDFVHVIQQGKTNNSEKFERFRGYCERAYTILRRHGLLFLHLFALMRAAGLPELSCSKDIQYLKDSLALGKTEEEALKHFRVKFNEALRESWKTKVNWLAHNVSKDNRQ
Sequence of PI3Kδ (p110δ/p85α) (P27986 whole entry partner): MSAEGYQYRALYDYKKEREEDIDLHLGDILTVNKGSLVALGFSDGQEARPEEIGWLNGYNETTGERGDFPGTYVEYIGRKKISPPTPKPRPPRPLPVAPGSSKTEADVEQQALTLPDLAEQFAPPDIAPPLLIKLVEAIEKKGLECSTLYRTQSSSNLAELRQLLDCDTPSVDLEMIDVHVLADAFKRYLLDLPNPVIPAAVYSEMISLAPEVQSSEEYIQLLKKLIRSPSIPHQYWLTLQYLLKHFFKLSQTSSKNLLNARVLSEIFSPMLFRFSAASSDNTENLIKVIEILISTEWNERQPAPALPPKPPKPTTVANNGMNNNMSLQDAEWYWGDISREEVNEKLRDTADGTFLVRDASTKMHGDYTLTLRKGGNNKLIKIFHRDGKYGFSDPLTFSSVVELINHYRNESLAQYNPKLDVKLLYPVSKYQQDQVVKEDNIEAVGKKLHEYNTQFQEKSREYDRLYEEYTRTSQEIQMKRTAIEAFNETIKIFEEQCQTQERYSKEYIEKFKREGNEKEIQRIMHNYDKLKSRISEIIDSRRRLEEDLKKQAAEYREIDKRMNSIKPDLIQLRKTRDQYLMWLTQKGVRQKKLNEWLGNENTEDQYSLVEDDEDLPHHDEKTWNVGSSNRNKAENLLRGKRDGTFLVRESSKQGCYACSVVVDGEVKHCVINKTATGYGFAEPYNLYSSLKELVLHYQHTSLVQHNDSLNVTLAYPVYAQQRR

By IC50 is commonly meant the concentration needed to halve the response being measured. As to `COc1c(C(C)n2nc(C)c3c(N)ncnc32)cc(Cl)c(C)c1C1CN(CC(C)(C)O)C1` (single isomer, unassigned) [Example 158, 1-(3-{3-[1-(4-Amino-3-methyl-1H-pyrazolo[3,4-d]pyrimidin-1-yl)ethyl]-5-chloro-2-methoxy-6-methylphenyl}azetidin-1-yl)-2-methylpropan-2-ol], the IC50 was under 0.01 µM.
Then `COc1c(C(C)n2nc(C)c3c(N)ncnc32)cc(Cl)c(C)c1C1CN(C2(CC#N)CCC2)C1` (single isomer, unassigned) [Example 161, [1-(3-{3-[1-(4-Amino-3-methyl-1H-pyrazolo[3,4-d]pyrimidin-1-yl)ethyl]-5-chloro-2-methoxy-6-methylphenyl}azetidin-1-yl)cyclobutyl]acetonitrile], with under 0.01 µM; and `COc1c(C(C)n2nc(C)c3c(N)ncnc32)cc(Cl)c(C)c1-c1cnc(N)nc1` (single isomer, unassigned) [Example 169, 1-(1-(3-(2-aminopyrimidin-5-yl)-5-chloro-2-methoxy-4-methylphenyl)ethyl)-3-methyl-1H-pyrazolo[3,4-d]pyrimidin-4-amine], with under 0.01 µM.
As to `COc1c(C(C)n2nc(C)c3c(N)ncnc32)cc(Cl)c(C)c1-c1cnn(CCN(C)C)c1` (single isomer, unassigned) [Example 183, 1-[1-(5-Chloro-3-{1-[2-(dimethylamino)ethyl]-1H-pyrazol-4-yl}-2-methoxy-4-methylphenyl)ethyl]-3-methyl-1H-pyrazolo[3,4-d]pyrimidin-4-amine], the IC50 is under 0.01 µM.
Then `COc1c(C(C)n2nc(C)c3c(N)ncnc32)cc(Cl)c(C)c1-c1ccc(NCCO)nc1` (single isomer, unassigned) [Example 184, 2-[(5-{3-[1-(4-Amino-3-methyl-1H-pyrazolo[3,4-d]pyrimidin-1-yl)ethyl]-5-chloro-2-methoxy-6-methylphenyl}pyridin-2-yl)amino]ethanol], with under 0.01 µM; and `COc1c(C(C)n2nc(C)c3c(N)ncnc32)cc(Cl)c(C)c1-c1ccc(OCCO)nc1` (single isomer, unassigned) [Example 188, 2-(5-(3-(1-(4-Amino-3-methyl-1H-pyrazolo[3,4-d]pyrimidin-1-yl)ethyl)-5-chloro-2-methoxy-6-methylphenyl)pyridin-2-yloxy)ethanol], with under 0.01 µM.
Under `Cc1c(Cl)cc(C(C)n2nc(C)c3c(N)ncnc32)c(OCC(F)F)c1-c1ccc(C(=O)N(C)C)nc1` (single isomer, unassigned) [Example 189, 5-(3-(1-(4-Amino-3-methyl-1H-pyrazolo[3,4-d]pyrimidin-1-yl)ethyl)-5-chloro-2-(2,2-difluoroethoxy)-6-methylphenyl)-N,N-dimethylpicolinamide bis(2,2,2-trifluoroacetate)] stands under 0.01 µM; under `CCOc1c(C(C)n2nc(C)c3c(N)ncnc32)cc(Cl)c(C)c1-c1cnn(CC(N)=O)c1` (single isomer, unassigned) [Example 203, 2-(4-(3-(1-(4-Amino-3-methyl-1H-pyrazolo[3,4-d]pyrimidin-1-yl)ethyl)-5-chloro-2-ethoxy-6-methylphenyl)-1H-pyrazol-1-yl)acetamide], under 0.01 µM.
Then `CCOc1c(C(C)n2nc(C)c3c(N)ncnc32)cc(Cl)c(C#N)c1C1CNC1` (single isomer, unassigned) [Example 212, 4-[1-(4-Amino-3-methyl-1H-pyrazolo[3,4-d]pyrimidin-1-yl)ethyl]-2-azetidin-3-yl-6-chloro-3-ethoxybenzonitrile], with under 0.01 µM.
Take `CCOc1c(C(C)n2nc(C)c3c(N)ncnc32)cc(Cl)c(C#N)c1C1CN(C)C1` (single isomer, unassigned) [Example 213, 4-[1-(4-Amino-3-methyl-1H-pyrazolo[3,4-d]pyrimidin-1-yl)ethyl]-6-chloro-3-ethoxy-2-(1-methylazetidin-3-yl)benzonitrile]: the IC50 was under 0.01 µM.
Then `CCOc1c(C(C)n2nc(C)c3c(N)ncnc32)cc(Cl)c(C#N)c1C1CN(CCO)C1` (single isomer, unassigned) [Example 219, 4-[1-(4-Amino-3-methyl-1H-pyrazolo[3,4-d]pyrimidin-1-yl)ethyl]-6-chloro-3-ethoxy-2-[1-(2-hydroxyethyl)azetidin-3-yl]benzonitrile], with under 0.01 µM.
Under `CCOc1c(C(C)n2nc(C)c3c(N)ncnc32)cc(Cl)c(C#N)c1C1CN(C(C)(C)C(=O)OC(C)(C)C)C1` (single isomer, unassigned) [Example 236, tert-Butyl 2-(3-{3-[1-(4-amino-3-methyl-1H-pyrazolo[3,4-d]pyrimidin-1-yl)ethyl]-5-chloro-6-cyano-2-ethoxyphenyl}azetidin-1-yl)-2-methylpropanoate] stands under 0.01 µM; under `CCOc1c(C(C)n2nc(C)c3c(N)ncnc32)cc(Cl)c(C#N)c1C1CN(C(C)(C)CO)C1` (single isomer, unassigned) [Example 237, 4-[1-(4-Amino-3-methyl-1H-pyrazolo[3,4-d]pyrimidin-1-yl)ethyl]-6-chloro-3-ethoxy-2-[1-(2-hydroxy-1,1-dimethylethyl)azetidin-3-yl]benzonitrile], under 0.01 µM.
Then `CCOc1c(C(C)n2nc(C)c3c(N)ncnc32)cc(Cl)c(C#N)c1C1CN(C(C)(C)C(N)=O)C1` (single isomer, unassigned) [Example 239, 2-{3-(3-[1-(4-Amino-3-methyl-1H-pyrazolo[3,4-d]pyrimidin-1-yl)ethyl]-5-chloro-6-cyano-2-ethoxyphenyl}azetidin-1-yl)-2-methylpropan amide], with under 0.01 µM; and `CCOc1c(C(C)n2nc(C)c3c(N)ncnc32)cc(Cl)c(C#N)c1C1CN(C(=O)C(C)(C)O)C1` (single isomer, unassigned) [Example 247, 4-[1-(4-Amino-3-methyl-1H-pyrazolo[3,4-d]pyrimidin-1-yl)ethyl]-6-chloro-3-ethoxy-2-[1-(2-hydroxy-2-methylpropanoyl)azetidin-3-yl]benzonitrile], with under 0.01 µM; and `COc1c(C(C)n2nc(C)c3c(N)ncnc32)cc(Cl)c(C#N)c1C1CNC1` (single isomer, unassigned) [Example 261, 4-[1-(4-Amino-3-methyl-1H-pyrazolo[3,4-d]pyrimidin-1-yl)ethyl]-2-azetidin-3-yl-6-chloro-3-methoxybenzonitrile], with under 0.01 µM.
As to `COc1c(C(C)n2nc(C)c3c(N)ncnc32)cc(Cl)c(C#N)c1C1CN(C)C1` (single isomer, unassigned) [Example 262, 4-[1-(4-Amino-3-methyl-1H-pyrazolo[3,4-d]pyrimidin-1-yl)ethyl]-6-chloro-3-methoxy-2-(1-methylazetidin-3-yl)benzonitrile], the IC50 is under 0.01 µM.
Take `COc1c(C(C)n2nc(C)c3c(N)ncnc32)cc(Cl)c(C#N)c1C1CN(CCO)C1` (single isomer, unassigned) [Example 268, 4-[1-(4-Amino-3-methyl-1H-pyrazolo[3,4-d]pyrimidin-1-yl)ethyl]-6-chloro-2-[1-(2-hydroxyethyl)azetidin-3-yl]-3-methoxybenzo nitrile]: the IC50 was under 0.01 µM.
Under `COc1c(C(C)n2nc(C)c3c(N)ncnc32)cc(Cl)c(C#N)c1C1CN(C(C)=O)C1` (single isomer, unassigned) [Example 281, 2-(1-Acetylazetidin-3-yl)-4-[1-(4-amino-3-methyl-1H-pyrazolo[3,4-d]pyrimidin-1-yl)ethyl]-6-chloro-3-methoxybenzonitrile] stands under 0.01 µM; under `COc1c(C(C)n2nc(C)c3c(N)ncnc32)cc(Cl)c(C#N)c1C1CN(S(C)(=O)=O)C1` (single isomer, unassigned) [Example 285, 4-[1-(4-Amino-3-methyl-1H-pyrazolo[3,4-d]pyrimidin-1-yl)ethyl]-6-chloro-3-methoxy-2-[1-(methylsulfonyl)azetidin-3-yl]benzonitrile], under 0.01 µM; under `COC(=O)N1CC(c2c(C#N)c(Cl)cc(C(C)n3nc(C)c4c(N)ncnc43)c2OC)C1` (single isomer, unassigned) [Example 289, Methyl 3-{3-[1-(4-amino-3-methyl-1H-pyrazolo[3,4-d]pyrimidin-1-yl)ethyl]-5-chloro-6-cyano-2-methoxyphenyl}azetidine-1-carboxylate], under 0.01 µM.
Then `COc1c(C(C)n2nc(C)c3c(N)ncnc32)cc(Cl)c(C#N)c1C1CN(C(=O)NC(C)(C)C)C1` (single isomer, unassigned) [Example 292, 3-{3-[1-(4-Amino-3-methyl-1H-pyrazolo[3,4-d]pyrimidin-1-yl)ethyl]-5-chloro-6-cyano-2-methoxyphenyl}-N-(tert-butyl)azetidine-1-carboxamide], with under 0.01 µM; and `COc1c(C(C)n2nc(C)c3c(N)ncnc32)cc(Cl)c(C#N)c1C1CN(C(N)=O)C1` (single isomer, unassigned) [Example 293, 3-{3-[1-(4-Amino-3-methyl-1H-pyrazolo[3,4-d]pyrimidin-1-yl)ethyl]-5-chloro-6-cyano-2-methoxyphenyl}azetidine-1-carboxamide], with under 0.01 µM.
